Results taken from article PMC11480411, “Mucosal sugars delineate pyrazine vs pyrazinone autoinducer signaling in Klebsiella oxytoca” (Nature Communications, 2024).
Values joined by “and” are separate entries in the source; they are usually repeats but may differ in a detail not shown here. Equal values may be shown once. Each block holds one compound with its values, some of them ahead of it.

How the values were obtained:
[1] = test system: leup operon (leupeptin BGC) promoter in K. oxytoca ATCC 8724; experiment: GFP-based transcriptional reporter for the leup operon; format: cell-based, Klebsiella oxytoca; conditions: carbohydrate screen, M9 + casamino acid + 0.4% indicated sugar, 30 °C, 24 h; for GFP fluorescence, GFP Strain + Media: leup GFP reporter strain; for GFP fluorescence, WT + Media: wildtype K. oxytoca without reporter (background)
Description: We previously examined a panel of 84 clinical K. oxytoca isolates (including recently renamed Klebsiella michiganensis isolates) for the presence of either the leup operon or npsB, an NRPS of the tilimycin/tilivalline gene cluster. […] While the roles of tilivalline and tilimycin in hemorrhagic colitis are well studied[8],[9], the operon for leupeptin biosynthesis is “silent” in K. oxytoca under typical laboratory culture conditions (i.e., leupeptin production is undetectable). Therefore, our study commenced by exploring growth conditions required to trigger leupeptin biosynthesis in K. oxytoca. To achieve this, we generated a green fluorescent protein (GFP)-based reporter system to monitor leup transcription in K. oxytoca ATCC 8724 (recently renamed as Klebsiella michiganensis (ATCC 8724), Fig. 1a). We utilized λ-red recombineering techniques[38] to replace the first biosynthetic gene (leupA) of the leupeptin BGC with a GFP-spectinomycin resistance cassette. […] Consequently, conditions that elicit transcription of the leupeptin BGC can be monitored by GFP fluorescence intensity.
5 mL of the leupeptin reporter strain was cultured aerobically in 10 g/L of LB (Becton Dickinson), yeast extract, GAM (HiMedia Laboratories), horse liver extract (HiMedia Laboratories), malt extract (VWR), meat extract (HiMedia Laboratories), YPD (Dot Scienticifc), brain heart infusion (Becton Dickinson), porcine mucin (Sigma-Aldrich, M1778), clostridial (Becton Dickinson), TSB (VWR), or casamino acid supplemented (5 g/L, VWR) M9 minimal salts (MP Biomedicals) at 30 °C for 24 h at 250 rpm. Cultures were lysed via sonication, centrifuged, and 150 µL of the supernatants were aliquoted into black well clear bottom 96 well plates. GFP fluorescence measurements were performed on a BioTek Synergy H1 plate reader with an excitation wavelength of 488 nm and an emission wavelength of 525 nm. For the carbohydrate screen, the leupeptin reporter strain was cultured in M9 minimal medium (MPbio) supplemented with casamino acid (5 g/L, VWR) and 0.4% indicated sugar aerobically at 30 °C for 24 h at 250 rpm.

HRH1 = target: T1, HRH1 (Homo sapiens, UniProt P35367); experiment: PRESTO-Tango GPCR screen and dose-response; format: cell-based; conditions: for HRH1 dose-response raw reporter signal (Fig. 5b source data): replicate wells
T1 construct: expressed in transfected cells; host or cells: HTLA cells (HEK293 line stably expressing β-arrestin-TEV and tTA-Luciferase)
Experimental: (§1) The PRESTO-Tango analyses were performed as previously published. Briefly, HTLA cells, a HEK293 cell line that stably expresses β-arrestin-TEV and tTA-Luciferase (a kind gift from Gilad Barnea, Brown University), were plated in 96-well tissue culture plates (Eppendorf) in DMEM containing 10% FBS and 1% Penicillin/Streptomycin. One day after plating (after reaching approximately 90% confluence), 200 ng per well GPCR-Tango plasmids[37] in 20 μL DMEM were individually mixed with 400 ng polyethylenimine (Polysciences) in an equal volume of DMEM and incubated for 20 min at room temperature before adding the transfection mixture to the HTLA cells. 16-24 h after transfection, medium was replaced with 180 μL fresh DMEM containing 1% Penicillin/Streptomycin and 10 mM HEPES and 20 μL of 3 or 3-Homo to reach a final concentration of 100 μM. Supernatants were aspirated 20 h after stimulation and 50 μl per well of Bright-Glo solution (Promega) diluted 20-fold with PBS containing 20 mM HEPES was added into each well. After 15 min incubation at room temperature, luminescence was quantified using a Spectramax i3x microplate reader (Molecular Devices). Activation fold for each sample was calculated by dividing relative luminescence units (RLU) for each condition by RLUs from PBS control. Dose response curves of each chemical were performed in a similar way with varying the ligand concentration from 10^−4 M to 10^−15 M.

HRH3 = target: T2, HRH3 (Homo sapiens, UniProt Q9Y5N1); experiment: PRESTO-Tango GPCR screen and dose-response; format: cell-based; conditions: for HRH3 dose-response raw reporter signal (Fig. 5b source data): replicate wells
T2 construct: expressed in transfected cells; host or cells: HTLA cells (HEK293 line stably expressing β-arrestin-TEV and tTA-Luciferase)
Experimental: as §1

[2] = target: T3, histamine receptor H4 (HRH4) (Homo sapiens, UniProt Q9H3N8); experiment: PRESTO-Tango GPCR screen and dose-response; format: cell-based; conditions: for HRH4 dose-response raw reporter signal (Fig. 5b source data): replicate wells
T3 construct: expressed in transfected cells; host or cells: HTLA cells (HEK293 line stably expressing β-arrestin-TEV and tTA-Luciferase)
Experimental: as §1

HRH2 = target: T4, HRH2 (Homo sapiens, UniProt P25021); experiment: PRESTO-Tango GPCR screen and dose-response; format: cell-based; conditions: for HRH2 dose-response raw reporter signal (Fig. 5b source data): replicate wells
T4 construct: expressed in transfected cells; host or cells: HTLA cells (HEK293 line stably expressing β-arrestin-TEV and tTA-Luciferase)
Experimental: as §1

T1 sequence (P35367 whole entry): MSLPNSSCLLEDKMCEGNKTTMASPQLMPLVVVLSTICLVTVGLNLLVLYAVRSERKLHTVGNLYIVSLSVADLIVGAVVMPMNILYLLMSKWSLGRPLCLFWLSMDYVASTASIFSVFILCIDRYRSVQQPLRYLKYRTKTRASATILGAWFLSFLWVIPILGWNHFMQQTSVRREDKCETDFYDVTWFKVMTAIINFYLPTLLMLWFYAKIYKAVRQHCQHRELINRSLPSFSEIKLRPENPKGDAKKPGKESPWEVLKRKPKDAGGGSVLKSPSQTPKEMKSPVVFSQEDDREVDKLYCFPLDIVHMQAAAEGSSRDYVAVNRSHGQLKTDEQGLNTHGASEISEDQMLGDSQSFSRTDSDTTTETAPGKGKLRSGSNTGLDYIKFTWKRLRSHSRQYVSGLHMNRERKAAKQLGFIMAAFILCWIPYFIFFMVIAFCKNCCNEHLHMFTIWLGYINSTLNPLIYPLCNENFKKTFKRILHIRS
T2 sequence (Q9Y5N1 whole entry): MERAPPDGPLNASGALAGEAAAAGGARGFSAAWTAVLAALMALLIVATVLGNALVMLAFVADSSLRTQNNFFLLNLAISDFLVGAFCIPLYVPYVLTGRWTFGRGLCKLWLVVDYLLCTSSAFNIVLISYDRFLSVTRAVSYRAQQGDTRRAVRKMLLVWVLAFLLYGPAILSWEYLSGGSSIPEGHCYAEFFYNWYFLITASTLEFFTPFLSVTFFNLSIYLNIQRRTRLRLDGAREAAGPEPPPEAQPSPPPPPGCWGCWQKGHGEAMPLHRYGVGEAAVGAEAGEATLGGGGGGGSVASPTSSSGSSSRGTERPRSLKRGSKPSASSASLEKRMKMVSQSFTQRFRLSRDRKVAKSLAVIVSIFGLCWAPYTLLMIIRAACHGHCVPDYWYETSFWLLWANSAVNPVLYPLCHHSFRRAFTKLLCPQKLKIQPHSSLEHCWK
T4 sequence (P25021 whole entry): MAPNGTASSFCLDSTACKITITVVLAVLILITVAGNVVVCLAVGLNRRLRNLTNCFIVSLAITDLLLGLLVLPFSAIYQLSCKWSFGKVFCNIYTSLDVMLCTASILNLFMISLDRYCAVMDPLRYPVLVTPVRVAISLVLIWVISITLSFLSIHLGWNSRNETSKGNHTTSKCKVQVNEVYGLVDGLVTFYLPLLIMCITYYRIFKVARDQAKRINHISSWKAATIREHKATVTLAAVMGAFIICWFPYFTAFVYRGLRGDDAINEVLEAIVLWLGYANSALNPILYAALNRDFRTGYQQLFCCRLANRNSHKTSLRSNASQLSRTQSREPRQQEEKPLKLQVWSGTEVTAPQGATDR

SMILES: CC(=O)N[C@@H]1[C@@H](O)[C@H](O)[C@@H](CO)O[C@H]1O [GlcNAc]
GFP fluorescence, GFP Strain + Media [1]: 9678 RFU | GFP fluorescence, WT + Media [1]: 5235 RFU

HRH1 dose-response raw reporter signal (Fig. 5b source data) (HRH1; Log(10)Conc (M) -4): 50545 and 47748 | HRH1 dose-response raw reporter signal (Fig. 5b source data) (HRH1; Log(10)Conc (M) -5): 50057 and 47492 | HRH1 dose-response raw reporter signal (Fig. 5b source data) (HRH1; Log(10)Conc (M) -6): 50434 and 47377 | HRH1 dose-response raw reporter signal (Fig. 5b source data) (HRH1; Log(10)Conc (M) -7): 50075 and 47693 | HRH1 dose-response raw reporter signal (Fig. 5b source data) (HRH1; Log(10)Conc (M) -8): 49488 and 47793 | HRH1 dose-response raw reporter signal (Fig. 5b source data) (HRH1; Log(10)Conc (M) -9): 48159 and 46626 | HRH1 dose-response raw reporter signal (Fig. 5b source data) (HRH1; Log(10)Conc (M) -10): 48713 and 47646 | HRH1 dose-response raw reporter signal (Fig. 5b source data) (HRH1; Log(10)Conc (M) -11): 49358 and 47065 | HRH1 dose-response raw reporter signal (Fig. 5b source data) (HRH1; Log(10)Conc (M) -12): 50278 and 46581 | HRH1 dose-response raw reporter signal (Fig. 5b source data) (HRH1; Log(10)Conc (M) -13): 49874 and 48613 | HRH1 dose-response raw reporter signal (Fig. 5b source data) (HRH1; Log(10)Conc (M) -14): 50243 and 49745 | HRH1 dose-response raw reporter signal (Fig. 5b source data) (HRH1; Log(10)Conc (M) -15): 45927 and 43079 | activity towards HRH1 (HRH1; PRESTO-Tango dose-response): no activity | HRH3 dose-response raw reporter signal (Fig. 5b source data) (HRH3; Log(10)Conc (M) -4): 348 and 274 and 324 | HRH3 dose-response raw reporter signal (Fig. 5b source data) (HRH3; Log(10)Conc (M) -5): 112 and 156 and 153 | HRH3 dose-response raw reporter signal (Fig. 5b source data) (HRH3; Log(10)Conc (M) -6): 127 and 174 and 142 | HRH3 dose-response raw reporter signal (Fig. 5b source data) (HRH3; Log(10)Conc (M) -7): 91 and 130 and 165 | HRH3 dose-response raw reporter signal (Fig. 5b source data) (HRH3; Log(10)Conc (M) -8): 168 and 112 and 162 | HRH3 dose-response raw reporter signal (Fig. 5b source data) (HRH3; Log(10)Conc (M) -9): 127 and 103 and 139 | HRH3 dose-response raw reporter signal (Fig. 5b source data) (HRH3; Log(10)Conc (M) -10): 174 and 144 and 115 | HRH3 dose-response raw reporter signal (Fig. 5b source data) (HRH3; Log(10)Conc (M) -11): 162 (2×) and 97 | HRH3 dose-response raw reporter signal (Fig. 5b source data) (HRH3; Log(10)Conc (M) -12): 139 and 168 and 144 | HRH3 dose-response raw reporter signal (Fig. 5b source data) (HRH3; Log(10)Conc (M) -13): 183 and 168 and 153 | HRH3 dose-response raw reporter signal (Fig. 5b source data) (HRH3; Log(10)Conc (M) -14): 183 and 85 and 150 | HRH3 dose-response raw reporter signal (Fig. 5b source data) (HRH3; Log(10)Conc (M) -15): 94 and 115 and 112 | activity towards HRH3 (HRH3; PRESTO-Tango dose-response): no activity | HRH4 dose-response raw reporter signal (Fig. 5b source data) ([2]; Log(10)Conc (M) -5): 427 and 460 | HRH4 dose-response raw reporter signal (Fig. 5b source data) ([2]; Log(10)Conc (M) -6): 342 and 348 | HRH4 dose-response raw reporter signal (Fig. 5b source data) ([2]; Log(10)Conc (M) -7): 348 and 321 | HRH4 dose-response raw reporter signal (Fig. 5b source data) ([2]; Log(10)Conc (M) -8): 410 and 321 | HRH4 dose-response raw reporter signal (Fig. 5b source data) ([2]; Log(10)Conc (M) -9): 324 and 251 | HRH4 dose-response raw reporter signal (Fig. 5b source data) ([2]; Log(10)Conc (M) -10): 377 and 368 | HRH4 dose-response raw reporter signal (Fig. 5b source data) ([2]; Log(10)Conc (M) -11): 262 and 307 | HRH4 dose-response raw reporter signal (Fig. 5b source data) ([2]; Log(10)Conc (M) -12): 407 and 336 | HRH4 dose-response raw reporter signal (Fig. 5b source data) ([2]; Log(10)Conc (M) -13): 298 and 395 | HRH4 dose-response raw reporter signal (Fig. 5b source data) ([2]; Log(10)Conc (M) -14): 268 | HRH4 dose-response raw reporter signal (Fig. 5b source data) ([2]; Log(10)Conc (M) -15): 215 and 212 | activity towards HRH4 ([2]; PRESTO-Tango dose-response): no activity | HRH2 dose-response raw reporter signal (Fig. 5b source data) (HRH2; Log(10)Conc (M) -4): 83 and 65 and 100 | HRH2 dose-response raw reporter signal (Fig. 5b source data) (HRH2; Log(10)Conc (M) -5): 41 and 50 and 56 | HRH2 dose-response raw reporter signal (Fig. 5b source data) (HRH2; Log(10)Conc (M) -6): 56 and 47 and 32 | HRH2 dose-response raw reporter signal (Fig. 5b source data) (HRH2; Log(10)Conc (M) -7): 65 and 62 and 35 | HRH2 dose-response raw reporter signal (Fig. 5b source data) (HRH2; Log(10)Conc (M) -8): 97 and 47 and 41 | HRH2 dose-response raw reporter signal (Fig. 5b source data) (HRH2; Log(10)Conc (M) -9): 41 and 35 and 77 | HRH2 dose-response raw reporter signal (Fig. 5b source data) (HRH2; Log(10)Conc (M) -10): 38 and 80 and 41 | HRH2 dose-response raw reporter signal (Fig. 5b source data) (HRH2; Log(10)Conc (M) -11): 91 and 32 and 56 | HRH2 dose-response raw reporter signal (Fig. 5b source data) (HRH2; Log(10)Conc (M) -12): 53 and 71 and 59 | HRH2 dose-response raw reporter signal (Fig. 5b source data) (HRH2; Log(10)Conc (M) -13): 38 (2×) and 85 | HRH2 dose-response raw reporter signal (Fig. 5b source data) (HRH2; Log(10)Conc (M) -14): 38 and 65 and 56 | HRH2 dose-response raw reporter signal (Fig. 5b source data) (HRH2; Log(10)Conc (M) -15): 32 and 41 and 83 | activity towards HRH2 (HRH2; PRESTO-Tango dose-response): no activity
SMILES: COC(=O)CCc1nc(Cc2ccccc2)c(CCC(=O)O)nc1Cc1ccccc1 [9-Me]

SMILES: O=C(CO)[C@@H](O)[C@H](O)[C@H](O)CO [Fructose]
GFP fluorescence, GFP Strain + Media [1]: 9618 RFU | GFP fluorescence, WT + Media [1]: 6828 RFU

SMILES: OC[C@H]1O[C@@H](O[C@H]2[C@H](O)[C@@H](O)C(O)O[C@@H]2CO)[C@H](O)[C@@H](O)[C@H]1O (mixture of isomers) [Lactose]
GFP fluorescence, GFP Strain + Media [1]: 5276 RFU | GFP fluorescence, WT + Media [1]: 4982 RFU

SMILES: O=C[C@H](O)[C@@H](O)[C@@H](O)[C@H](O)CO [Galactose]
GFP fluorescence, GFP Strain + Media [1]: 9159 RFU | GFP fluorescence, WT + Media [1]: 6849 RFU

SMILES: CC(C)S[C@@H]1O[C@H](CO)[C@H](O)[C@H](O)[C@H]1O [IPTG]
GFP fluorescence, GFP Strain + Media [1]: 9918 RFU | GFP fluorescence, WT + Media [1]: 8873 RFU
